Data as given in patent US8937077B2, “Bicyclic diamines as janus kinase inhibitors” (Merck Sharp & Dohme Corp., priority 2010, dated 2015).

The compounds below were run against T1, Jak1 (Homo sapiens, UniProt P23458) (assay: Jak Biochemical HTRF Assay (Jak1)). Details: IC50 class, recombinant GST-tagged catalytic domain, read-out: Jak1 activity.
T1 construct: using a recombinant purified GST-tagged catalytic domain for each enzyme; GST; purchased Invitrogen M4290
Description: Compounds of formula I can be prepared according to the general procedures described in the Schemes and Examples herein, using appropriate materials. Representative compounds of the present invention are exemplified herein below. The compounds exemplified are not, however, to be construed as limiting the scope of the invention in any manner. The examples further illustrate details for the preparation of the compounds of the present invention. Those skilled in the art will readily understand that known variations of protecting groups, of reagents, as well as of the conditions and processes of the following preparative procedures, can be used to prepare these compounds. It is also understood that whenever a chemical reagent is not commercially available, such a chemical reagent can be readily prepared by those skilled in the art by either following or adapting known methods described in the literature or described herein. Chiral analogs were prepared via incorporation of chiral reagents or obtained after chiral chromatography separation of a racemically generated analog. All temperatures are degrees Celsius unless otherwise noted. Mass spectra (MS) were measured either by electrospray ion-mass spectroscopy (ESMS) or by atmospheric pressure chemical ionization mass spectroscopy (APCI). Jak1 data were obtained using the in vitro assay described below.
Jak Biochemical HTRF Assay Protocol
The ability of compounds to inhibit the activity of Jak1, Jak2, Jak3, and Tyk2 was measured using a recombinant purified GST-tagged catalytic domain for each enzyme (Invitrogen Jak1 #M4290, […]) in an HTRF format biochemical assay. The reactions employed a common peptide substrate, LCB-EQEDEPEGDYFEWLW-NH2 (in-house). The basic assay protocol is as follows: First, […] of diluted compounds in DMSO were dispensed into the wells of a dry 384-well Black plate (Greiner #781076) using a Labcyte Echo 555 acoustic dispenser. Subsequent reagent additions employed an Agilent Bravo. Next, 18 μL, of 1.11X enzyme and 1.11X substrate in 1X assay buffer (Invitrogen kinase buffer #PV3189, 2 mM DTT, 0.05% BSA) were added to the wells and shaken and then preincubated for 30 minutes at room temperature to allow compound binding to equilibrate. After equilibration, 2 μL of 10X ATP in 1X assay buffer was added to initiate the kinase reaction and the plates were shaken and then incubated at room temperature for 120 minutes. At the end of the incubation, 20 μL of 2X stop buffer (streptavidin-Dylight (Thermo #21845), Eu-tagged pY20 antibody (Perkin Elmer #AD0067), EDTA, HEPES, and Triton) was added to quench the reaction. Plates were shaken and centrifuged and then incubated 60 minutes at room temperature and then read on a Perkin Elmer Envision (λex=337 nm, λem=665 and 615 nm, TRF delay time=20 μs). HTRF signal=10,000*665 nm reading/615 nm reading. After normalization to untreated controls, the percent inhibition of the HTRF signal at each compound concentration was calculated. The plot of percent inhibition versus the log of compound concentration was fit with a 4-parameter dose response equation to calculate IC50 values.

T1 sequence (P23458 875-1153 limits assumed): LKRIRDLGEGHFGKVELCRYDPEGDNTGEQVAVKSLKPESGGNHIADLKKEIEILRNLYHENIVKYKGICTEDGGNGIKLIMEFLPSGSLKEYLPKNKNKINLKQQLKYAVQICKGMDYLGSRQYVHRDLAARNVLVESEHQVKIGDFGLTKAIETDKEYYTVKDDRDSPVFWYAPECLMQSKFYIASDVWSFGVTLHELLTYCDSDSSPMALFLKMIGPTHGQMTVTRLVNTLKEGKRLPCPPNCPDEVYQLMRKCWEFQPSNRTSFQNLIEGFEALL

| SMILES | IC50 [nM] |
| --- | --- |
| CC(C)(C)OC(=O)NCc1ccc(COC(=O)N2CCC[C@@H]3[C@H]2CCN3c2ncnc3[nH]ccc23)cc1 [Example 8-1, 4-{[(tert-butoxycarbonyl)amino]methyl}benzyl(3aR,7aR)-1-(7H-pyrrolo[2,3-d]pyrimidin-4-yl)octahydro-4-pyrrolo[3,2-b]pyridine-4-carboxylate] | 100 to 1000 |
| O=C(O)c1ccc(CCC(=O)N2CCC[C@@H]3[C@H]2CCN3c2ncnc3[nH]ccc23)cc1 [Example 27, 4-{3-oxo-3-[(3aR,7aR)-1-(7H-pyrrolo[2,3-d]pyrimidin-4-yl)octahydro-4H-pyrrolo[3,2-b]pyridin-4-yl]propyl}benzoic acid] | 10 to 100 |
| O=C(c1ccccc1-c1ccccc1)N1CCC[C@@H]2[C@H]1CCN2c1ncnc2[nH]ccc12 [Example 29-23, 4-[(3aR,7aR)-4-(biphenyl-2-ylcarbonyl)octahydro-1H-pyrrolo[3,2-b]pyridin-1-yl]-7H-pyrrolo[2,3-d]pyrimidine] | 100 to 1000 |
| c1nc(N2CCC3NCCC[C@@H]32)c2cc[nH]c2n1 (single isomer, unassigned) [Enantiomer 1] | 100 to 1000 |
| O=C(OCCc1ccccc1)N1CCCC2C1CCN2c1ncnc2[nH]ccc12 (stereo not drawn) [Example 3-8, 2-phenylethyl 1-(7H-pyrrolo[2,3-d]pyrimidin-4-yl)octahydro-4H-pyrrolo[3,2-b]pyridine-4-carboxylate] | 10 to 100 |
| Cn1c(C(=O)N2CCC[C@@H]3[C@H]2CCN3c2ncnc3[nH]ccc23)cc2ccccc21 [Example 29-21, 4-{(3aR,7aR)-4-[(1-methyl-1H-indol-2-yl)carbonyl]octahydro-1H-pyrrolo[3,2-b]pyridin-1-yl}-7H-pyrrolo[2,3-d]pyrimidine] | 10 to 100 |
| O=C(OCc1cccnc1)N1CCC[C@@H]2[C@H]1CCN2c1ncnc2[nH]ccc12 [Example 3-19, pyridin-3-ylmethyl (3aR,7aR)-1-(7H-pyrrolo[2,3-d]pyrimidin-4-yl)octahydro-4H-pyrrolo[3,2-b]pyridine-4-carboxylate] | 100 to 1000 |
| O=C(c1ccsc1)N1CCC[C@@H]2[C@H]1CCN2c1ncnc2[nH]ccc12 [Example 29-32, 4-[(3aR,7aR)-4-(thiophen-3-ylcarbonyl)octahydro-1H-pyrrolo[3,2-b]pyridin-1-yl]-7H-pyrrolo[2,3-d]pyrimidine] | 10 to 100 |
| Cn1ccc2cc(C(=O)N3CCC[C@@H]4[C@H]3CCN4c3ncnc4[nH]ccc34)cnc21 [Example 29-50, 4-{(3aR,7aR)-4-[(1-methyl-1H-pyrrolo[2,3-b]pyridin-5-yl)carbonyl]octahydro-1H-pyrrolo[3,2-b]pyridin-1-yl}-7H-pyrrolo[2,3-d]pyrimidine] | 100 to 1000 |
| O=C(CN1CCc2ccccc2C1)N1CCC[C@@H]2[C@H]1CCN2c1ncnc2[nH]ccc12 [Example 29-36, 2-{2-oxo-2-[(3aR,7aR)-1-(7H-pyrrolo[2,3-d]pyrimidin-4-yl)octahydro-4H-pyrrolo[3,2-b]pyridin-4-yl]ethyl}-1,2,3,4-tetrahydroisoquinoline] | 10 to 100 |
| C[C@H](OC(=O)N1CCC[C@@H]2C1CCN2c1ncnc2[nH]ccc12)c1ccccc1 (stereo partly drawn) [Example 8-2, (1S)-1-phenylethyl (3aR,7 aR)-1-(7H-pyrrolo[2,3-d]pyrimidin-4-yl)octahydro-4-pyrrolo[3,2-b]pyridine-4-carboxylate] | 10 to 100 |
| O=C(OC1CCCCC1)N1CCC[C@@H]2[C@H]1CCN2c1ncnc2[nH]ccc12 [Example 3-32, cyclohexyl (3aR,7aR)-1-(7H-pyrrolo[2,3-d]pyrimidin-4-yl)octahydro-4H-pyrrolo[3,2-b]pyridine-4-carboxylate] | 10 to 100 |

Further lines, results first:

| IC50 [nM] | SMILES |
| --- | --- |
| 100 to 1000 | O=C(c1cccc(N2CCOCC2)c1)N1CCC[C@@H]2[C@H]1CCN2c1ncnc2[nH]ccc12 [Example 29-22, 4-{(3aR,7aR)-4-[(3-morpholin-4-ylphenyl)carbonyl]octahydro-1H-pyrrolo[3,2-b]pyridin-1-yl}-7H-pyrrolo[2,3-d]pyrimidine] |
| 10 to 100 | O=C(c1cccnc1)N1CCC[C@@H]2[C@H]1CCN2c1ncnc2[nH]ccc12 [Example 29-10, 4-[(3aR,7aR)-4-(pyridin-3-ylcarbonyl)octahydro-1H-pyrrolo[3,2-b]pyridin-1-yl]-7H-pyrrolo[2,3-d]pyrimidine] |
| 10 to 100 | CC(C)S(=O)(=O)N1CCC[C@@H]2[C@H]1CCN2c1ncnc2[nH]ccc12 [Example 32-1, 4-{(3aR,7aR)-4-[(1-methylethyl)sulfonyl]octahydro-1H-pyrrolo[3,2-b]pyridin-1-yl}-7H-pyrrolo[2,3-d]pyrimidine] |
| 100 to 1000 | O=C(c1ccccn1)N1CCC[C@@H]2[C@H]1CCN2c1ncnc2[nH]ccc12 [Example 29-11, 4-[(3aR,7aR)-4-(pyridin-2-ylcarbonyl)octahydro-1H-pyrrolo[3,2-b]pyridin-1-yl]-7H-pyrrolo[2,3-d]pyrimidine] |
| 100 to 1000 | CCC(=O)N1CCC[C@@H]2[C@H]1CCN2c1ncnc2[nH]ccc12 (single isomer, unassigned) [Example 29-7] |
| 10 to 100 | O=C(Cc1ccc(C(F)(F)F)cc1)N1CCCC2C1CCN2c1ncnc2[nH]ccc12 (stereo not drawn) [Example 29-5, 4-(4-{[4-(trifluoromethyl)phenyl]acetyl}octahydro-1H-pyrrolo[3,2-b]pyridin-1-yl)-7H-pyrrolo[2,3-d]pyrimidine] |
| 100 to 1000 | O=C(CO)N1CCCC2C1CCN2c1ncnc2[nH]ccc12 [Example 17, (3aS,7aS and 3aR,7aR) 2-hydroxy-1-[1-(7H-pyrrolo[2,3-d]pyrimidin-4-yl)octahydro-4H-pyrrolo[3,2-b]pyridine-4-yl]ethanone] |
| 10 to 100 | COC(=O)c1cccc(OC(=O)N2CCCC3C2CCN3c2ncnc3[nH]ccc23)c1 (stereo not drawn) [Example 3-26, 3-(methoxyeaxbonyl)phenyl 1-(7H-pyrrolo[2,3-d]pyrimidin-4-yl)octahydro-4H-pyrrolo[3,2-b]pyridine-4-carboxylate] |
| 10 to 100 | O=C(c1cccc2ccncc12)N1CCC[C@@H]2[C@H]1CCN2c1ncnc2[nH]ccc12 [Example 29-39, 8-{[(3aR,7aR)-1-(7H-pyrrolo[2,3-d]pyrimidin-4-yl)octahydro-4H-pyrrolo[3,2-b]pyridin-4-yl]carbonyl}isoquinoline] |
| 100 to 1000 | O=C(c1cn2cccnc2n1)N1CCC[C@@H]2[C@H]1CCN2c1ncnc2[nH]ccc12 [Example 29-49, 4-[(3aR,7aR)-4-(imidazo[1,2-a]pyrimidin-2-ylcarbonyl)octahydro-1H-pyrrolo[3,2-b]pyridin-1-yl]-7H-pyrrolo[2,3-d]pyrimidine] |
| 100 to 1000 | O=C(c1ccc(N2CCOCC2)cc1)N1CCCC2C1CCN2c1ncnc2[nH]ccc12 [Example 29-1, (3aS,7aS and 3aR,7aR) 4-{4-[(4-morpholin-4-ylphenyl)carbonyl]octahydro-1H-pyrrolo[3,2-b]pyridin-1-yl}-7H-pyrrolo[2,3-d]pyrimidine] |
| 10 to 100 | O=C(OCCN1CCOCC1)N1CCC[C@@H]2[C@H]1CCN2c1ncnc2[nH]ccc12 [Example 3-39, 2-morpholin-4-ylethyl (3aR,7aR)-1-(7H-pyrrolo[2,3-d]pyrimidin-4-yl)octahydro-4H-pyrrolo[3,2-b]pyridine-4-carboxylate] |
| 100 to 1000 | O=C(O)c1ccc(CCOC(=O)N2CCC[C@@H]3[C@H]2CCN3c2ncnc3[nH]ccc23)cc1 [Example 28, 4-[2-({[(3aR,7aR)-1-(7H-pyrrolo[2,3-d]pyrimidin-4-yl)octahydro-4H-pyrrolo[3,2-b]pyridin-4-yl]carbonyl}oxy)ethyl]benzoic acid] |

Same assay, conditions: Jak1 activity, IC50 class, recombinant GST-tagged catalytic domain

| SMILES | IC50 [nM] |
| --- | --- |
| CC1CCN(C(=O)OCc2ccccc2)C2CCN(c3ncnc4[nH]ccc34)C12 [Example 20, (3aS,7S,7aS and 3aR,7R,7aR) benzyl 7-methyl-1-(7H-pyrrolo[2,3-d]pyrimidin-4-yl)octahydro-4H-pyrrolo[3,2-b]pyridine-4-carboxylate] | 10 to 100 |

Same assay, conditions: Representative IC50 values, recombinant GST-tagged catalytic domain, 31.8 μM ATP

| SMILES | IC50 [nM] |
| --- | --- |
| CC1CCN(C(=O)OCc2ccccc2)C2CCN(c3ncnc4[nH]ccc34)C12 [Example 20, (3aS,7S,7aS and 3aR,7R,7aR) benzyl 7-methyl-1-(7H-pyrrolo[2,3-d]pyrimidin-4-yl)octahydro-4H-pyrrolo[3,2-b]pyridine-4-carboxylate] | 12 |

Same assay, conditions: recombinant GST-tagged catalytic domain, 31.8 μM ATP, read-out: Representative IC50 values

| SMILES | IC50 [nM] |
| --- | --- |
| O=C(c1cn2cccnc2n1)N1CCC[C@@H]2[C@H]1CCN2c1ncnc2[nH]ccc12 [Example 29-49, 4-[(3aR,7aR)-4-(imidazo[1,2-a]pyrimidin-2-ylcarbonyl)octahydro-1H-pyrrolo[3,2-b]pyridin-1-yl]-7H-pyrrolo[2,3-d]pyrimidine] | 132 |
| O=C(CN1CCc2ccccc2C1)N1CCC[C@@H]2[C@H]1CCN2c1ncnc2[nH]ccc12 [Example 29-36, 2-{2-oxo-2-[(3aR,7aR)-1-(7H-pyrrolo[2,3-d]pyrimidin-4-yl)octahydro-4H-pyrrolo[3,2-b]pyridin-4-yl]ethyl}-1,2,3,4-tetrahydroisoquinoline] | 30 |
| O=C(OC1CCCCC1)N1CCC[C@@H]2[C@H]1CCN2c1ncnc2[nH]ccc12 [Example 3-32, cyclohexyl (3aR,7aR)-1-(7H-pyrrolo[2,3-d]pyrimidin-4-yl)octahydro-4H-pyrrolo[3,2-b]pyridine-4-carboxylate] | 11 |
